Results published in US9895303B2, “Peptide, method and composition for stimulating melanogenesis” (Renorigin Innovation Institute Co., Ltd., priority 2016, dated 2018).

How the values were obtained:
Assay type in all cases: cell-based, murine
[1] = test system: Tyrosinase; assay: DOPA staining; conditions: B16F10 cells, 10-50 μg/ml, 4 days
Experimental: (§1) B16F10 murine melanoma cells were cultured in phenol red-free DMEM with 10% fetal bovine serum and penicillin/streptomycin (100 IU/50 […]) in a humidified atmosphere containing 5% CO2 in air at 37° C.
DOPA staining was also performed to measure tyrosinase enzyme activity. B16F10 cells were seeded in 6-well plate (2×10^4 cells/well) and incubated overnight to allow cells to adhere. After treating with various test samples in an incubator for 4 days, cells were washed with PBS, fixation with 2% paraformaldehyde and washing with PBS a further three times, the cells were incubated with 0.1% DOPA (dissolved in 0.1 M PBS) at 37° C. for 5 hour, and observed using light microscopy (Wang et al., Exp Ther Med 6, 967-972, 2013).

[2] = test system: B16F10 melanoma cells; assay: Visual pigmentation of B16F10 cells and culture medium; conditions: 10-50 μg/ml, 5 days, medium change at day 3
Experimental: B16F10 melanoma cells were treated with 10-50 μg/ml peptide of SEQ ID NO: 1 (“Lf B-17-34”) for 5 days with a medium change at day 3. The cells and medium were recovered in test tubes. Kojic acid is used as negative control in the cellular study due to known inhibitory effects on tyrosinase activity. IBMX is used as positive control in the cellular study due to known elevator of cellular cAMP level, to stimulate melanogenesis.
as §1

[3] = test system: Tyrosinase; assay: Tyrosinase assay (cell lysate, L-DOPA); conditions: B16F10 cells, 10-50 μg/ml, 5 days
Experimental: as §1
Tyrosinase is the rate limiting enzyme in the melanogenic pathway. Its measurement provides a highly specific and sensitive indication of degree of induction of melanogenesis. Tyrosinase enzyme activity of cultured B16F10 cells were measured according to the method of (Bellei et al., J Biol Chem 285, 7288-7299, 2010) with a slight modification. Briefly, B16F10 cells were seeded in 6-well plate (2×10^4 cells/well) and incubated overnight to allow cells to adhere. After treating with various test samples in an incubator for 5 days, cells were washed with PBS and then harvested using trypsin. At the end point, the cells were solubilized with phosphate buffer (pH 6.8) containing 1% Triton X-100. The cells were then disrupted by freezing and thawing, and the lysates were clarified by centrifugation at 10,000×g for 10 min. After protein quantification and adjustment of protein concentrations with lysis buffer, 100 μl of each lysate (each containing the same amount of protein) were aliquoted into the wells of a 96-well plate, and 100 μl of 5 mM L-DOPA were then added to each well. The absorbance was measured spectrophotometrically at 475 nm following a […] incubation period at 37° C. […]

[4] = test system: B16F10 cells; assay: Melanin content assay; conditions: 10-50 μg/ml, 5 days
Experimental: as §1
Melanin contents of cultured B16F10 cells were measured according to the method (Lee et al., J Invest Dermatol 124, 405-411, 2005) with a slight modification. Briefly, B16F10 cells were seeded in 6-well plate (2×10^4 cells/well) and incubated overnight to allow cells to adhere. After treating with various test samples in an incubator for 5 days, washed, trypsinized and counted before pelleting. Melanin per cell was quantified after boiling in 1 M NaOH for 1 hour and melanin content in each sample was read from a calibration curve against synthetic eumelanin at 400 nm and converted to means±SE melanin pg/cell from 3 independent experiments.

DOPA staining [1]: strong DOPA staining
Sequence: FKCRRWQWRMKKLGAPSI (listed as Bos taurus) [Lf B-17-34]
pigmentation in cells and in medium [2]: hyper pigmentation in cells as in medium to a similar extent
tyrosinase activity [3]: significantly increased tyrosinase activity
melanin synthesis (melanin content in cells, melanin secretion in medium) [4]: significantly increased melanin synthesis in a concentration-dependent manner
